Where two headings read alike, the source gives them in different places.

Here are results for three molecules from US4435404A, “Carbostyril derivatives” (priority 1980, dated 1984).

Data set [1] relates to collagen-induced aggregation in rabbit platelet. The experiment in a line: Inhibition effect on collagen-induced aggregation in rabbit platelet. It counts as cell-based. The note with it: Oryctolagus cuniculus, Platelet, read-out: Inhibition effect on collagen-induced aggregation. The method, then:
(§1) The platelet aggregation inhibitory effect is measured by using AG-II aggregometer (manufactured by Bryston Manufacturing Co.). The blood sample used for the test is a 1/9 (by volume) mixture of sodium citrate and whole blood collected from rabbit. Said sample is subjected to 10-minute centrifugal separation at 1,000 r.p.m. to obtain a platelet rich plasma (PRP). The thus obtained PRP is separated, and the remaining blood sample is further subjected to 15-minute centrifugal separation at 3,000 r.p.m. to obtain a platelet poor plasma (PPP).
(§2) The number of platelets in the PRP is counted by the Brecher-Clonkite Method, and the PRP is diluted with the PPP to prepare a PRP sample with platelet concentration of 300,000/mm^3 for the adenosine diphosphate (ADP)-induced aggregation test. There is also prepared a PRP sample with platelet concentration of 450,000/mm^3 for the collagen-induced aggregation test.
(§3) 0.6 Milliliter of said PRP sample is added into 0.01 ml of a solution of a test compound of a predetermined concentration and the mixture is placed in a 37° C. thermostat for one minute. Then 0.07 ml of an ADP or collagen solution is added to the mixture. Transmittance of this mixture is determined and the change of transmittance is recorded by using the aggregometer at stirrer speed of 1,100 r.p.m. […] The ADP solution is adjusted to a concentration of 7.5×10^-5 M, and the collagen solution is prepared by triturating 100 mg of collagen with 5 ml of said buffer and the supernatant is used as collagen inducer. Acetylsalicylic acid is used as control for the ADP-induced aggregation test and the collagen-induced aggregation test, respectively. The platelet aggregation inhibitory effect is measured in terms of percent inhibition with respect to the aggregation rate of the controls. The aggregation rate is calculated from the following formula:
(§4) Aggregation rate=[(c-a)/(b-a)]×100
(§5) b: transmittance of PRP containing a test compound and an aggregation inducer

Data set [2] relates to ADP-induced aggregation in rabbit platelet. The data set can be described thus: Inhibition effect on ADP-induced aggregation in rabbit platelet. It counts as cell-based. Particulars: Oryctolagus cuniculus, Platelet; for inhibition at 100 µM: concentration of the test compound solution 10^-4 mole. The method, then: as §1, §2, §3, §4, §5
In data set [3] the target is T1, cyclic AMP phosphodiesterase (Oryctolagus cuniculus, UniProt G1ST54).
T1 construct: the supernatant was collected to use it as a crude enzyme solution; from tissue; host or cells: rabbit platelets (from platelet-rich plasma)
T1 sequence (G1ST54 1-1128): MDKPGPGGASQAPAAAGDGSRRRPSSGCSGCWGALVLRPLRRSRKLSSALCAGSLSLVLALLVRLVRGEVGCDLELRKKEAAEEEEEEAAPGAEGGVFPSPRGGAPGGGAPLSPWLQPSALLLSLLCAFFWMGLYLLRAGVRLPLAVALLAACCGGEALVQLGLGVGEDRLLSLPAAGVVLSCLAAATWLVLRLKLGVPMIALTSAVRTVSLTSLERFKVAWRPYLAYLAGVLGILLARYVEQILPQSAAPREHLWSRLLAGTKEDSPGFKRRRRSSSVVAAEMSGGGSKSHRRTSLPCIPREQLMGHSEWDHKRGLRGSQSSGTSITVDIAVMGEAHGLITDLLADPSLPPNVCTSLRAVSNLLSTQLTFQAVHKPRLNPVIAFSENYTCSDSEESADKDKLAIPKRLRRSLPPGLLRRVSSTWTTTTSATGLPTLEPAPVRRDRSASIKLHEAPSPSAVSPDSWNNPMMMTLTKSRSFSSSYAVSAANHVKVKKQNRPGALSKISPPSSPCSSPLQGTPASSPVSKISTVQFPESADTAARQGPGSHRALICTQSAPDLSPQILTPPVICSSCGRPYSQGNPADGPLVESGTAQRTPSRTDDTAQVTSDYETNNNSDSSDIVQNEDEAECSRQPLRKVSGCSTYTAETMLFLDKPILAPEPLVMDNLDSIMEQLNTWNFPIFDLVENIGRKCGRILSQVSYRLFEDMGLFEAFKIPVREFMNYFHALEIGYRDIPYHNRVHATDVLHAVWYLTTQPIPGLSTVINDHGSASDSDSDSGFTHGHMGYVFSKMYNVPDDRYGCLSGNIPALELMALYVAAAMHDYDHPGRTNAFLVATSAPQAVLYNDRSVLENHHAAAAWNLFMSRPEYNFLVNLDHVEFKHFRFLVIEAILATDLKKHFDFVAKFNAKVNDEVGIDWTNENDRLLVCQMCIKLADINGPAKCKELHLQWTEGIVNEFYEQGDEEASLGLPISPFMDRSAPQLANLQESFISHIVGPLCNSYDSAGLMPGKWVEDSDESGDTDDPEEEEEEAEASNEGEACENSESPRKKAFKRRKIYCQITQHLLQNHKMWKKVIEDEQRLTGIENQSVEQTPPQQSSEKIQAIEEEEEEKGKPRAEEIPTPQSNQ
The experiment in a line: Obstructive action against cyclic AMP phosphodiesterase. It counts as biochemical. The note with it: rabbit platelet enzyme, 30° C., 20 minutes. The method, then:
That is, for determining the obstructive activity against cyclic AMP phosphodiesterase, 10 ml of a solution obtained by adding 1 mmol of MgCl2 into 50 mmol of tris-hydrochloric acid buffer with pH 7.4 was added to the platelets obtained by further centrifuging the above-said rabbit PRP at 3,000 r.p.m. for 10 minutes, and the suspended platelets were ground by a Teflon potter type homogenizer. This was followed by two times of freezing and thawing treatment and 300-second fracturing with 200 watt supersonic waves. After additional 60-minute centrifugation with 100,000 G, the supernatant was collected to use it as a crude enzyme solution.
10 Milliliters of this crude buffer solution was added to a 1.5×20 cm DEAE-cellulose column which has previously been buffered with 50 mM of tris-acetate buffer (pH 6.0), followed by washing and elution with 30 ml of 50 mM tris-acetate buffer, and this buffer solution was subjected to linear gradient elution with 0 to 0.5 moles of sodium acetate-tris-acetatebuffer (total amount of elute was 300 ml.). The flow rate was 0.5 ml/min, and 5 ml of each fraction was batched out. […] This fraction was used as cyclic AMP phosphodiesterase.
0.1 Milliliter of an aqueous solution of each test compound of a specified concentration was mixed with 40 mmol of tris-hydrochloric acid buffer (pH 8.0, containing 50 μg of cow serum albumin and 4 mmol of MgCl2) containing predetermined 1.0 μmol of cyclic AMP (tritium cyclic AMP), and 0.2 ml of this mixed solution was used as substrate solution.
0.2 Milliliter of the above-prepared cyclic AMP phosphodiesterase of a predetermined concentration was added to said substrate solution and the mixture was reacted at 30° C. for 20 minutes, producing tritium 5'-AMP from the tritium cyclic AMP.
The reaction system was then immersed in boiling water for 2 minutes to stop the reaction, and then this reaction solution was cooled in ice water and, for converting the produced tritium 5'-AMP into tritium adenosine, the solution was added with 0.05 ml (1 mg/ml) of snake poison as 5'-nucleotidase and reacted at 30° C. for 10 minutes. The whole amount of this reaction solution was then added to a cation exchange resin (AG 500 W×4, 200-400 meshes, manufactured by Bio-Rad Co., column size: 0.5×1.5 cm), and the produced tritium anodesine alone was allowed to combine, washed with 6 ml of distilled water and eluted with 1.5 ml of 3 N-ammonia water. The whole quantity of the elutant was added with 10 ml of a triton-toluene type scintillator and the produced tritium adenosine was measured by a liquid scintillation counter to determine the phosphodiesterase activity.
In this way, the phosphodiesterase activation value (Vs) of the test compounds of the respective concentrations was determined, and the phosphodiesterase obstruction rate (%) was determined from said activation value (Vs) and control value (Vc) (obtained from water not containing any test compound) from the following formula: [formula] Known 1-methyl-3-isobutylxanthine was used as control.

Another data set can be described thus: Acute Toxicity Test. Particulars: mouse, in vivo; male mice, oral administration. On the procedure:
The test compounds were administered orally to the mice and LD50 (mg/kg) of the compounds was determined.

Another data set has as its system Wistar strain male rats. The data set can be described thus: Test of increasing effect of heart rate. Particulars: 30 mg/kg oral, 60 minutes after the administration. It counts as in vivo, rat. On the procedure: Wistar strain male rats, having 180-230 g of body weight, were abstained from food for 24 hours, the electrocardiograms introduced from the second induction period were recorded on oscillograph. The heart rate was calculated from the electrocardiograms by observing them for 10 seconds several times. […] 60 Minutes after the administration, the heart rate was measured and increasing effect of the heart rate was calculated. Generally, an average heart rate of an usual Wistar strain male rat is about 320 beat/minute.

Where [4] appears, read: concentration of the test compound solution 10^-5 mole.
Setting [5] is: concentration of the test compound solution 10^-6 mole.
Where [6] appears, read: concentration of the test compound solution 10^-5 mole, read-out: Inhibition effect on ADP-induced aggregation.
[7] abbreviates: concentration of the test compound solution 10^-6 mole, read-out: Inhibition effect on ADP-induced aggregation.
The mark [8] stands for this setting: read-out: Inhibition effect on ADP-induced aggregation.

For the molecule `CN(CC1CCCCO1)C(=O)CCCOc1ccc2[nH]c(=O)ccc2c1` (stereo not drawn) [No. 6, 6-{3-[N-Methyl-N-(2-tetrahydropyranylmethyl)aminocarbonyl]propoxy}carbostyril], the inhibition – broadly, how much of the control response was suppressed – at 10 µM in data set [1] (setting [4]) amounted to 48.1%; in data set [2] (setting [6]), 24.6%. Also, the inhibition at 1 µM came out at 3.8% in data set [1] (setting [5]) and 14.7% in data set [2] (setting [7]). The molecule also had an inhibition at 100 µM in data set [2] of 75%. Half-maximal inhibition in data set [3] (IC50) required 52 nM. Also, the LD50 (usually the dose at which mortality reaches 50%) in “Acute Toxicity Test” was above 1000 mg/kg. The “Increasing effect of heart rate” value in the data set with Wistar strain male rats amounted to 40 Beat/min.
Take `O=C(CCCOc1ccc2[nH]c(=O)ccc2c1)N1CCN(c2ccccc2)CC1` [No. 14, 6-[3-(4-Phenyl-1-piperazinylcarbonyl)propoxy]carbostyril]: the figures for the inhibition at 10 µM in data set [1] (setting [4]) and in data set [2] (setting [6]) were 100% and 87.7%, respectively. The inhibition at 1 µM in data set [1] (setting [5]) was 31%; in data set [2] (setting [7]), 15.7%. In data set [2], this molecule showed an inhibition at 100 µM of 100%. Also, inhibition in data set [3] was half-maximal at 52 nM (IC50). Moreover, the LD50 in the data set “Acute Toxicity Test” was above 1000 mg/kg. Further, the “Increasing effect of heart rate” value in the data set on Wistar strain male rats amounted to 32 Beat/min.
On to `CN(C(=O)CCCOc1ccc2[nH]c(=O)ccc2c1)C1CCCCC1` [No. 39, 6-[3-(N--Methyl-N--cyclohexylaminocarbonyl)-propoxy]carbostyril, reference compound], for which, in data set [1], the inhibition at 0.1 µM was 57%, the inhibition at 1 µM is 90.2% and the inhibition at 10 µM turned out to be 90.5%. In data set [2] (setting [8]), the inhibition at 0.1 µM came to 32.8%, the inhibition at 1 µM is 62.1% and the inhibition at 10 µM was found to be 91.7%. Besides, the IC50 (as a rule, the concentration at which inhibition is half-maximal) in data set [3] was 16 nM. For the same molecule, in the data set on Wistar strain male rats, the “Increasing effect of heart rate” value stood at 104 Beat/min.
